Results as given in ChEMBL document CHEMBL3822358 (J Med Chem, 2016).

Molecular target: Insulin-like growth factor 1 receptor (Homo sapiens, UniProt P08069)
Assay: not given
Conditions: not given

Sequence of Insulin-like growth factor 1 receptor (P08069 31-736 limits assumed): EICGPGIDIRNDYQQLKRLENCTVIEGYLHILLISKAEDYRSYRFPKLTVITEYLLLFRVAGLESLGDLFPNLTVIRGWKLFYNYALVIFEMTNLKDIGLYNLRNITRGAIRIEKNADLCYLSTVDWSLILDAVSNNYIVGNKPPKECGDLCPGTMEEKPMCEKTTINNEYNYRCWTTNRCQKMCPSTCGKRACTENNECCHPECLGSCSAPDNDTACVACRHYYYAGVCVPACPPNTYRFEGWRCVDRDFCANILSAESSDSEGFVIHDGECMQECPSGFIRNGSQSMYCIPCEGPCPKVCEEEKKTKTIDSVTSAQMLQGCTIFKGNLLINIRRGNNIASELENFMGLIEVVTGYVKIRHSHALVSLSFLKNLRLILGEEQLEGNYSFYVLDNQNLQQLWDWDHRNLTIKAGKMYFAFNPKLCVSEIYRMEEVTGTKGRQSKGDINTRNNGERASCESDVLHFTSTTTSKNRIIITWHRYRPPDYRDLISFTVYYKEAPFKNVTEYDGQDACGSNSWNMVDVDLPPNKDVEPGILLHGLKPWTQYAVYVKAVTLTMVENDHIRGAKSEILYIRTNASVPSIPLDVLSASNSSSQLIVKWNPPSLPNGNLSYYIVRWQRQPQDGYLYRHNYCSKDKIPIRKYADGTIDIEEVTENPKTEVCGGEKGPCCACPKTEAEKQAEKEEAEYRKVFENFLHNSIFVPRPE
Sequence of Insulin-like growth factor 1 receptor (P08069 741-1367 limits assumed): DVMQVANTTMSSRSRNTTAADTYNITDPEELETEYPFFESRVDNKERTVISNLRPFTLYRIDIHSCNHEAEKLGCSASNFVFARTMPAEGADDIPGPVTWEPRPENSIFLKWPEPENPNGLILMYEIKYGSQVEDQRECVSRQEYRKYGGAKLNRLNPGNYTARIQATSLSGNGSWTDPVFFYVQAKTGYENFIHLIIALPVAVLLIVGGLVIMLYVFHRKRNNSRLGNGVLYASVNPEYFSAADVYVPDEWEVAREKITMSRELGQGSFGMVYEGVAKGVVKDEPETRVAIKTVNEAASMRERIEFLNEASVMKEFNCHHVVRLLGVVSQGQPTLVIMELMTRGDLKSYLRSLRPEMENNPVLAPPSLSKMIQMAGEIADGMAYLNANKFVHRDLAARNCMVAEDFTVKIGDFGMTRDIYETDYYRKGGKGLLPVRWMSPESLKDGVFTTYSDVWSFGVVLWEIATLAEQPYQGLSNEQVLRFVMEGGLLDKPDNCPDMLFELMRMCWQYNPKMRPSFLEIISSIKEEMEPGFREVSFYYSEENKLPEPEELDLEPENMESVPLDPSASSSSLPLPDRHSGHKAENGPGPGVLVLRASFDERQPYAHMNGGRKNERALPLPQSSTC

SMILES | IC50 [nM]
COc1cc(N2CCC(N3CCN(C)CC3)CC2)ccc1Nc1ncc(C2CC2)c(Nc2ccccc2P(C)(C)=O)n1 | 434
COc1cc(N2CCC(N3CCN(C)CC3)CC2)ccc1Nc1ncc(Cl)c(Nc2ccccc2C#N)n1 | 51.6
COc1cc(N2CCC(N3CCCCC3)C2)ccc1Nc1ncc(Cl)c(Nc2ccccc2P(C)(C)=O)n1 (stereo not given) | 81.5
CNC(=O)CN1CCN(c2ccc(Nc3ncc(Cl)c(Nc4ccccc4P(C)(C)=O)n3)c(OC)c2)CC1 | 125
COc1cc(N2CCC(N3CCN(C)CC3)CC2)ccc1Nc1ncc(Cl)c(Nc2ccccc2C(=O)N(C)C)n1 | 6.17
COc1cc(N2CCC(N3CCN(C)CC3)CC2)ccc1Nc1ncc(Cl)c(Nc2ccccc2C(C)=O)n1 | 1.33
COc1cc(N2CCC(N3CCN(C)CC3)CC2)ccc1Nc1ncc(Cl)c(Nc2ccccc2I)n1 | 6.2
COc1cc(N2CCC(N3CCN(C)CC3)CC2)ccc1Nc1ncc(Cl)c(Nc2ccccc2)n1 | 51.6
COc1cc(N2CCN(C(C)=O)CC2)ccc1Nc1ncc(Cl)c(Nc2ccccc2P(C)(C)=O)n1 | 32.5
COc1cc(N2CCC(N3CCN(C)CC3)CC2)ccc1Nc1ncc(Cl)c(Nc2ccccc2C(C)O)n1 (stereo not given) | 36.1
COc1cc(N2CCC(N3CCN(C)CC3)CC2)ccc1Nc1ncc(Cl)c(Nc2ccccc2OC)n1 | 8.7

Next, values leading:

IC50 [nM] | SMILES
1.4 | COc1cc(N2CCC(N3CCN(C)CC3)CC2)ccc1Nc1ncc(Cl)c(Nc2ccccc2C(N)=O)n1
0.76 | COc1cc(N2CCC(N3CCN(C)CC3)CC2)ccc1Nc1ncc(Cl)c(Nc2ccccc2S(C)(=O)=O)n1
1.93 | COc1cc(N2CCC(N3CCN(C)CC3)CC2)ccc1Nc1ncc(Cl)c(Nc2ccccc2S(=O)(=O)N(C)C)n1
42.7 | COc1cc(N2CC[C@@H](N(C)C)C2)ccc1Nc1ncc(Cl)c(Nc2ccccc2P(C)(C)=O)n1
0.4 | COc1cc(P(C)(C)=O)ccc1Nc1ncc(Cl)c(Nc2ccccc2S(C)(=O)=O)n1
1.9 | COc1cc(P(C)(C)=O)ccc1Nc1ncc(Cl)c(Nc2ccccc2S(=O)(=O)C(C)C)n1
203 | CC(C)Oc1cc(N2CCC(N3CCN(C)CC3)CC2)ccc1Nc1ncc(Cl)c(Nc2ccccc2P(C)(C)=O)n1
0.47 | COc1cc(P(C)(C)=O)ccc1Nc1ncc(Cl)c(Nc2ccccc2C(C)=O)n1

Molecular target: Insulin receptor (Homo sapiens, UniProt P06213)
Assay: not given
Conditions: not given

Sequence of Insulin receptor (P06213 28-758 limits assumed): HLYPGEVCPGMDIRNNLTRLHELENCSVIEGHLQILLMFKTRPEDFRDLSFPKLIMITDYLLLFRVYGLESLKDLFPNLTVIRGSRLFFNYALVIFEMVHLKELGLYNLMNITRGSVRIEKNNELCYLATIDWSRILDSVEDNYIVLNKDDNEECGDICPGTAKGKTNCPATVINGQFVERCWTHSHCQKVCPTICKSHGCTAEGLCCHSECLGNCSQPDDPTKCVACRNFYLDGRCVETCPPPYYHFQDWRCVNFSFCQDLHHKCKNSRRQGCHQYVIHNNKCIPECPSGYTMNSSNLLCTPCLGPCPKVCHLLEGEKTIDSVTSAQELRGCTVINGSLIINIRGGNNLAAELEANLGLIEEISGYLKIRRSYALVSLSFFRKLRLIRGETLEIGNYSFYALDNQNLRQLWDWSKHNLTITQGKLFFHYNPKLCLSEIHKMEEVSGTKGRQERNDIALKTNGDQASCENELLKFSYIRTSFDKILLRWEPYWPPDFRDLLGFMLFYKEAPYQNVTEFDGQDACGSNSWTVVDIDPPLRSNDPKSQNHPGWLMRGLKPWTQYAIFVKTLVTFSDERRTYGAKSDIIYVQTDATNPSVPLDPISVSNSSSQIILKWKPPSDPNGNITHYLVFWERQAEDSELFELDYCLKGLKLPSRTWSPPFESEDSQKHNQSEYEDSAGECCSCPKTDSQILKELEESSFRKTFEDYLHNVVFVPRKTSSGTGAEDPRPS
Sequence of Insulin receptor (P06213 763-1382 limits assumed): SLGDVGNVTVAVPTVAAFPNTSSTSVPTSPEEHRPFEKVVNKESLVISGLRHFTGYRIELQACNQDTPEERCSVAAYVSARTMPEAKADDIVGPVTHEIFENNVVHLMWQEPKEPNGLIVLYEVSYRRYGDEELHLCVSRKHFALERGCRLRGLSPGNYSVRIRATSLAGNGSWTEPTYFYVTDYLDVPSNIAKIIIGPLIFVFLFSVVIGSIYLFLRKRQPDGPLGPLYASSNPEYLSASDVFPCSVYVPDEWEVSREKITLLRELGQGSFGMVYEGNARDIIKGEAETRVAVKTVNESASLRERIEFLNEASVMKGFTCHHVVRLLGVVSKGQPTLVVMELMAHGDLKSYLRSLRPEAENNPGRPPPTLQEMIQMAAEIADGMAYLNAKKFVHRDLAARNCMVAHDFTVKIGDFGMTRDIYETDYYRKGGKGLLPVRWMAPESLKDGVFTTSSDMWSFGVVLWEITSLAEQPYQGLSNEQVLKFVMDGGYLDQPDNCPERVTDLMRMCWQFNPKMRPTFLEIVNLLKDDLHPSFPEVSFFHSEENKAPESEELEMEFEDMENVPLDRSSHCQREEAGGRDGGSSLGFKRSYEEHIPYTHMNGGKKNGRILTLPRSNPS

SMILES | IC50 [nM]
COc1cc(N2CCC(N3CCN(C)CC3)CC2)ccc1Nc1ncc(C2CC2)c(Nc2ccccc2P(C)(C)=O)n1 | 367
COc1cc(N2CCC(N3CCN(C)CC3)CC2)ccc1Nc1ncc(Cl)c(Nc2ccccc2C#N)n1 | 128
COc1cc(N2CCC(N3CCCCC3)C2)ccc1Nc1ncc(Cl)c(Nc2ccccc2P(C)(C)=O)n1 (stereo not given) | 270
CNC(=O)CN1CCN(c2ccc(Nc3ncc(Cl)c(Nc4ccccc4P(C)(C)=O)n3)c(OC)c2)CC1 | 459
COc1cc(N2CCC(N3CCN(C)CC3)CC2)ccc1Nc1ncc(Cl)c(Nc2ccccc2C(=O)N(C)C)n1 | 6.05
COc1cc(N2CCC(N3CCN(C)CC3)CC2)ccc1Nc1ncc(Cl)c(Nc2ccccc2C(C)=O)n1 | 2.16
COc1cc(N2CCC(N3CCN(C)CC3)CC2)ccc1Nc1ncc(Cl)c(Nc2ccccc2I)n1 | 13.7
COc1cc(N2CCC(N3CCN(C)CC3)CC2)ccc1Nc1ncc(Cl)c(Nc2ccccc2)n1 | 81.7
COc1cc(N2CCN(C(C)=O)CC2)ccc1Nc1ncc(Cl)c(Nc2ccccc2P(C)(C)=O)n1 | 103
COc1cc(N2CCC(N3CCN(C)CC3)CC2)ccc1Nc1ncc(Cl)c(Nc2ccccc2C(C)O)n1 (stereo not given) | 43.2
COc1cc(N2CCC(N3CCN(C)CC3)CC2)ccc1Nc1ncc(Cl)c(Nc2ccccc2OC)n1 | 26

Other lines, results leading:

IC50 [nM] | SMILES
3.4 | COc1cc(N2CCC(N3CCN(C)CC3)CC2)ccc1Nc1ncc(Cl)c(Nc2ccccc2C(N)=O)n1
5.1 | COc1cc(N2CCC(N3CCN(C)CC3)CC2)ccc1Nc1ncc(Cl)c(Nc2ccccc2S(C)(=O)=O)n1
8.44 | COc1cc(N2CCC(N3CCN(C)CC3)CC2)ccc1Nc1ncc(Cl)c(Nc2ccccc2S(=O)(=O)N(C)C)n1
489 | COc1cc(N2CC[C@@H](N(C)C)C2)ccc1Nc1ncc(Cl)c(Nc2ccccc2P(C)(C)=O)n1
4.7 | COc1cc(P(C)(C)=O)ccc1Nc1ncc(Cl)c(Nc2ccccc2S(C)(=O)=O)n1
9.9 | COc1cc(P(C)(C)=O)ccc1Nc1ncc(Cl)c(Nc2ccccc2S(=O)(=O)C(C)C)n1
700 | CC(C)Oc1cc(N2CCC(N3CCN(C)CC3)CC2)ccc1Nc1ncc(Cl)c(Nc2ccccc2P(C)(C)=O)n1
0.88 | COc1cc(P(C)(C)=O)ccc1Nc1ncc(Cl)c(Nc2ccccc2C(C)=O)n1

Test system: not listed separately
Assay: cells
Conditions: Homo sapiens, KARPAS-299, 72 h
Description: Antiproliferative activity against human ALK-positive KARPAS299 cells assessed as reduction in cell viability measured after 72 hrs by CellTiter 96 aqueous one solution cell proliferation assay

SMILES | IC50 [nM]
COc1cc(N2CCC(N3CCN(C)CC3)CC2)ccc1Nc1ncc(C2CC2)c(Nc2ccccc2P(C)(C)=O)n1 | 278
COc1ccccc1Nc1ncc(Cl)c(Nc2ccccc2S(=O)(=O)C(C)C)n1 | 349
COc1cc(N2CCC(N3CCCCC3)C2)ccc1Nc1ncc(Cl)c(Nc2ccccc2P(C)(C)=O)n1 (stereo not given) | 66.7
CNC(=O)CN1CCN(c2ccc(Nc3ncc(Cl)c(Nc4ccccc4P(C)(C)=O)n3)c(OC)c2)CC1 | 270
COc1cc(N2CCC(N3CCN(C)CC3)CC2)ccc1Nc1ncc(Cl)c(Nc2ccccc2I)n1 | 705
COc1cc(N2CCN(C(C)=O)CC2)ccc1Nc1ncc(Cl)c(Nc2ccccc2P(C)(C)=O)n1 | 79.9
COc1cc(N2CCC(N3CCN(C)CC3)CC2)ccc1Nc1ncc(Cl)c(Nc2ccccc2OC)n1 | 851

Other lines, results leading:

IC50 [nM] | SMILES
66.9 | COc1cc(N2CC[C@@H](N(C)C)C2)ccc1Nc1ncc(Cl)c(Nc2ccccc2P(C)(C)=O)n1
405 | COc1cc(P(C)(C)=O)ccc1Nc1ncc(Cl)c(Nc2ccccc2S(C)(=O)=O)n1
20 | COc1cc(P(C)(C)=O)ccc1Nc1ncc(Cl)c(Nc2ccccc2S(=O)(=O)C(C)C)n1
54.6 | CC(C)Oc1cc(N2CCC(N3CCN(C)CC3)CC2)ccc1Nc1ncc(Cl)c(Nc2ccccc2P(C)(C)=O)n1
251 | COc1cc(P(C)(C)=O)ccc1Nc1ncc(Cl)c(Nc2ccccc2C(C)=O)n1

Test system: not listed separately
Assay: cells
Conditions: Homo sapiens, U-937, 72 h
Description: Antiproliferative activity against human ALK-negative U937 cells assessed as reduction in cell viability measured after 72 hrs by CellTiter 96 aqueous one solution cell proliferation assay

SMILES | IC50 [nM]
COc1cc(N2CCC(N3CCN(C)CC3)CC2)ccc1Nc1ncc(C2CC2)c(Nc2ccccc2P(C)(C)=O)n1 | 10600
COc1ccccc1Nc1ncc(Cl)c(Nc2ccccc2S(=O)(=O)C(C)C)n1 | 20800
COc1cc(N2CCC(N3CCCCC3)C2)ccc1Nc1ncc(Cl)c(Nc2ccccc2P(C)(C)=O)n1 (stereo not given) | 2390
CNC(=O)CN1CCN(c2ccc(Nc3ncc(Cl)c(Nc4ccccc4P(C)(C)=O)n3)c(OC)c2)CC1 | 7000
COc1cc(N2CCN(C(C)=O)CC2)ccc1Nc1ncc(Cl)c(Nc2ccccc2P(C)(C)=O)n1 | 5450

Next, values leading:

IC50 [nM] | SMILES
1170 | COc1cc(N2CC[C@@H](N(C)C)C2)ccc1Nc1ncc(Cl)c(Nc2ccccc2P(C)(C)=O)n1
4810 | COc1cc(P(C)(C)=O)ccc1Nc1ncc(Cl)c(Nc2ccccc2S(C)(=O)=O)n1
4840 | COc1cc(P(C)(C)=O)ccc1Nc1ncc(Cl)c(Nc2ccccc2S(=O)(=O)C(C)C)n1
21500 | CC(C)Oc1cc(N2CCC(N3CCN(C)CC3)CC2)ccc1Nc1ncc(Cl)c(Nc2ccccc2P(C)(C)=O)n1
1420 | COc1cc(P(C)(C)=O)ccc1Nc1ncc(Cl)c(Nc2ccccc2C(C)=O)n1

Molecular target: ALK tyrosine kinase receptor (Homo sapiens, UniProt Q9UM73)
Assay: not given
Conditions: not given

Sequence of ALK tyrosine kinase receptor (Q9UM73 whole entry): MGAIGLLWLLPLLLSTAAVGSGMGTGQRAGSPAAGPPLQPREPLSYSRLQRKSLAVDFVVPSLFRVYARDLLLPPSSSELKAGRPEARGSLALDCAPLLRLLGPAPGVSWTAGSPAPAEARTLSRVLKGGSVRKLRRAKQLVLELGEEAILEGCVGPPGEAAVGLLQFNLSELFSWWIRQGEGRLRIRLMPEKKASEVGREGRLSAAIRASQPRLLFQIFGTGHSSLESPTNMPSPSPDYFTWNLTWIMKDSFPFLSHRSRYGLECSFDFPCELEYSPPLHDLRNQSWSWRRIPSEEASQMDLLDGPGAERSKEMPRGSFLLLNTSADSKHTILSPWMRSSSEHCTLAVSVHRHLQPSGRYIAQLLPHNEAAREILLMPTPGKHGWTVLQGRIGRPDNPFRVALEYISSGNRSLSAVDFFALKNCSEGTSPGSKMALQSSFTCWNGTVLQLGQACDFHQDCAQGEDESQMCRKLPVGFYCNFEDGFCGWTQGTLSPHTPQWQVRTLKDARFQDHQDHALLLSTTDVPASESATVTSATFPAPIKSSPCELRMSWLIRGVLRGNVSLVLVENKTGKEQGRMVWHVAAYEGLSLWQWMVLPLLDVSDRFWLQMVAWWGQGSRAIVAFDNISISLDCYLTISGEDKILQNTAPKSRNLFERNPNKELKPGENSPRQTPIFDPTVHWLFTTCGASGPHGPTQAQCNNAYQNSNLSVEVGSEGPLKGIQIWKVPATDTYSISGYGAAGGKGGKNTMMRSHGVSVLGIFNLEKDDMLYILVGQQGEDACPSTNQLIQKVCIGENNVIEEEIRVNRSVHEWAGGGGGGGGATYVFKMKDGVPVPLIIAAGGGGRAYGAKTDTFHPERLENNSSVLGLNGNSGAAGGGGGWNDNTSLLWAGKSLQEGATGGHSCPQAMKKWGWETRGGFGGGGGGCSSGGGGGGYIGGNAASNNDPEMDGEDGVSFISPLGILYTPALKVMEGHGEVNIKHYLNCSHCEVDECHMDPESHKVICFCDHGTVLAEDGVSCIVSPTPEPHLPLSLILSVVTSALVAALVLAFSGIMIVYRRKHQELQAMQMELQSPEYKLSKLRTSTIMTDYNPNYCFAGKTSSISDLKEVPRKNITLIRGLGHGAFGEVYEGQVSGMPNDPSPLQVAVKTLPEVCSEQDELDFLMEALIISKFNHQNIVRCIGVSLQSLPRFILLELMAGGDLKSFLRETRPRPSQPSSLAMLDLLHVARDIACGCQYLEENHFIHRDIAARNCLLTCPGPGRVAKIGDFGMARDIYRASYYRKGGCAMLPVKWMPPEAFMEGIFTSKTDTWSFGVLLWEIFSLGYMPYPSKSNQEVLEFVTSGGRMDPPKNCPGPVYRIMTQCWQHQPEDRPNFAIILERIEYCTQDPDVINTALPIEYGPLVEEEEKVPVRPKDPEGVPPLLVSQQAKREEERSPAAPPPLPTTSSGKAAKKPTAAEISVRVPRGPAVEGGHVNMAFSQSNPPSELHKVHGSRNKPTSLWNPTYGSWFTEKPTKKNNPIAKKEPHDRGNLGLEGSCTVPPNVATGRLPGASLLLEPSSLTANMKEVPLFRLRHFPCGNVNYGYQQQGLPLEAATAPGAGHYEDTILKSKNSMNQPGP

SMILES | IC50 [nM]
COc1cc(N2CCC(N3CCN(C)CC3)CC2)ccc1Nc1ncc(C2CC2)c(Nc2ccccc2P(C)(C)=O)n1 | 3.23
COc1ccccc1Nc1ncc(Cl)c(Nc2ccccc2S(=O)(=O)C(C)C)n1 | 2.1
COc1cc(N2CCC(N3CCN(C)CC3)CC2)ccc1Nc1ncc(Cl)c(Nc2ccccc2C#N)n1 | 1.86
COc1cc(N2CCC(N3CCCCC3)C2)ccc1Nc1ncc(Cl)c(Nc2ccccc2P(C)(C)=O)n1 (stereo not given) | 0.88
CNC(=O)CN1CCN(c2ccc(Nc3ncc(Cl)c(Nc4ccccc4P(C)(C)=O)n3)c(OC)c2)CC1 | 3.1
COc1cc(N2CCC(N3CCN(C)CC3)CC2)ccc1Nc1ncc(C(C)=O)c(Nc2ccccc2P(C)(C)=O)n1 | 291
COc1cc(N2CCC(N3CCN(C)CC3)CC2)ccc1Nc1ncc(Cl)c(Nc2ccccc2C(=O)N(C)C)n1 | 4.77
COc1cc(N2CCC(N3CCN(C)CC3)CC2)ccc1Nc1ncc(Cl)c(Nc2ccccc2C(C)=O)n1 | 1.59
COc1cc(N2CCC(N3CCN(C)CC3)CC2)ccc1Nc1ncc(Cl)c(Nc2ccccc2I)n1 | 1.36
COc1cc(N2CCC(N3CCN(C)CC3)CC2)ccc1Nc1ncc(Cl)c(Nc2ccccc2)n1 | 9.9
COc1cc(N2CCC(N3CCN(C)CC3)CC2)ccc1Nc1ncc(Cl)c(Nc2ccccc2C(C)O)n1 (stereo not given) | 0.99
COc1cc(N2CCC(N3CCN(C)CC3)CC2)ccc1Nc1ncc(Cl)c(Nc2ccccc2OC)n1 | 1.88

Second part, the compound after the results:

IC50 [nM] | SMILES
0.8 | COc1cc(N2CCC(N3CCN(C)CC3)CC2)ccc1Nc1ncc(Cl)c(Nc2ccccc2C(N)=O)n1
0.59 | COc1cc(N2CCC(N3CCN(C)CC3)CC2)ccc1Nc1ncc(Cl)c(Nc2ccccc2S(C)(=O)=O)n1
0.75 | COc1cc(N2CCC(N3CCN(C)CC3)CC2)ccc1Nc1ncc(Cl)c(Nc2ccccc2S(=O)(=O)N(C)C)n1
0.33 | COc1cc(N2CC[C@@H](N(C)C)C2)ccc1Nc1ncc(Cl)c(Nc2ccccc2P(C)(C)=O)n1
0.33 | COc1cc(P(C)(C)=O)ccc1Nc1ncc(Cl)c(Nc2ccccc2S(C)(=O)=O)n1
0.31 | COc1cc(P(C)(C)=O)ccc1Nc1ncc(Cl)c(Nc2ccccc2S(=O)(=O)C(C)C)n1
0.68 | CC(C)Oc1cc(N2CCC(N3CCN(C)CC3)CC2)ccc1Nc1ncc(Cl)c(Nc2ccccc2P(C)(C)=O)n1
0.79 | COc1cc(P(C)(C)=O)ccc1Nc1ncc(Cl)c(Nc2ccccc2C(C)=O)n1
